Read-outs that look alike come from different tables or passages of the source.

What is called IC50 is the point on the concentration scale where inhibition reaches its midpoint.

In one assay the target is T1, NAMPT (Homo sapiens, UniProt P43490).
T1 construct: His tag; host or cells: E. coli
The assay is described as follows: Biochemical inhibition assay: NAMPT enzymatic reaction, NMN quantified by mass spectrometry. Conditions: read-out: Biochem IC50. In outline:
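Inhibition of E. coli-expressed His-tagged human NAMPT, measured as NMN formation by mass spectrometry after a 30 min room-temperature reaction containing 1 μM NAM, 100 μM PRPP and 2.5 mM ATP.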

A further assay has as its system A2780 cells. Description: In-vitro cell proliferation assay (SRB), A2780 cells. The assay is classed as cell-based. The following applies: Homo sapiens, A2780, 72 h, A2780 cells, 72 hours, read-out: A2780 IC50. In outline:
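SRB read-out: 6% TCA fix 1 h at 4° C., stain, Tris solubilize, A570. Media-only background subtracted; % inhibition from two compound concentrations.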

T1 sequence (P43490 whole entry): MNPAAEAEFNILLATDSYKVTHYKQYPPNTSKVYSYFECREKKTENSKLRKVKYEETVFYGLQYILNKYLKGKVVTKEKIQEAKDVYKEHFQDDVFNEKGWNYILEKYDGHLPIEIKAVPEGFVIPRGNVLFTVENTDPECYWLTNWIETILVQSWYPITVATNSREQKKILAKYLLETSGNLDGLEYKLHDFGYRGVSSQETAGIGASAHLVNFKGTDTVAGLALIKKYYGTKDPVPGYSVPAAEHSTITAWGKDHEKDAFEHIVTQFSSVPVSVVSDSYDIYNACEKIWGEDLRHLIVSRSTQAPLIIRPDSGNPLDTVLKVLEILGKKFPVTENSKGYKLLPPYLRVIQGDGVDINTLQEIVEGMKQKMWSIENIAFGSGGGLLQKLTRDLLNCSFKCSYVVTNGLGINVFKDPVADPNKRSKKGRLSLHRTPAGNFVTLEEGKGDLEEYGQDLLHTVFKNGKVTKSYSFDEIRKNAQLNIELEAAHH

For `COc1cccc(S(=O)(=O)c2ccc(CNC(=O)c3cnc4nccn4c3)cc2)c1` [N-({4-[(3-methoxybenzene)sulfonyl]phenyl}methyl)imidazo[1,2-a]pyrimidine-6-carboxamide], the values for the half-maximal inhibitory concentration (IC50) at NAMPT (NAMPT enzymatic reaction) and with A2780 cells (SRB) were 2 nM and 12.4 nM, respectively.
As for `COc1ccc(C(C)C)cc1S(=O)(=O)c1ccc(CNC(=O)c2ccc3nccn3c2)cc1`, the values for the 50% inhibitory concentration (IC50) at NAMPT (NAMPT enzymatic assay) and in the assay with A2780 cells (SRB) were 35.2 nM and 6.4 nM, respectively.
Regarding `CCCOc1cccc(F)c1S(=O)(=O)c1ccc(CNC(=O)c2cc3ccncc3o2)cc1`, the figures for the IC50 at NAMPT (NAMPT enzymatic reaction) and in the assay with A2780 cells (SRB) were 13.3 nM and 14.2 nM, respectively.
Take `COc1cccc(S(=O)(=O)c2ccc(CNC(=O)c3cnc4[nH]ncc4c3)cc2)c1F`: the figures for the concentration for half-maximal inhibition (IC50) on NAMPT (NAMPT enzymatic reaction) and in the assay on A2780 cells (SRB) were 8.6 nM and 56.3 nM, respectively.
On the same counts, the results for `COc1cc(F)ccc1S(=O)(=O)c1ccc(CNC(=O)c2cc3ccncc3o2)cc1` are 12.7 nM and 16 nM.
On the same counts, the results for `Cc1ccc(Cl)c(S(=O)(=O)c2ccc(CNC(=O)c3cc4ccncc4s3)cc2)c1Cl` [N-({4-[(2,6-dichloro-3-methylbenzene)sulfonyl]phenyl}methyl)thieno[2,3-c]pyridine-2-carboxamide] are 4.4 nM and 8.2 nM.
For `COc1ccc(S(=O)(=O)c2ccc(CNC(=O)c3cc4ccncc4s3)cc2)cc1C` [N-({4-[{4-methoxy-3-methylbenzene)sulfonyl]phenyl}methyl)thieno[2,3-c]pyridine-2-carboxamide], the figures for the IC50 on NAMPT (NAMPT enzymatic reaction) and in the assay on A2780 cells (SRB assay) were 3 nM and 2.4 nM, respectively.
On to `O=C(NCc1ccc(S(=O)(=O)c2ccc(C3CCCCC3)cc2)cc1)c1cc2ccncc2s1`, for which the IC50 at NAMPT (NAMPT enzymatic reaction) was determined as 3.4 nM; in the assay with A2780 cells (SRB), 12.9 nM.
Turning to `COCc1cccc(S(=O)(=O)c2ccc(CNC(=O)c3cc4ccncc4s3)cc2)c1`, the IC50 on NAMPT (NAMPT enzymatic assay) worked out at 2.6 nM; with A2780 cells (SRB), 6.7 nM.
Consider `CCOc1ccc(S(=O)(=O)c2ccc(CNC(=O)c3cnc4[nH]ncc4c3)cc2)c(C)c1`, for which the concentration for half-maximal inhibition (IC50) at NAMPT (NAMPT enzymatic reaction) came out at 108 nM; in the assay with A2780 cells (SRB) it was 66.7 nM.
Regarding `O=C(NCc1ccc(S(=O)(=O)c2ccc(OC(F)(F)F)c(F)c2)cc1)c1cc2cnccc2[nH]1` [N-[(4-{[3-fluoro-4-(trifluoromethoxy)benzene]sulfonyl}phenyl)methyl]-1H-pyrrolo[3,2-c]pyridine-2-carboxamide], the 50% inhibitory concentration (IC50) at NAMPT (NAMPT enzymatic assay) worked out at 26.2 nM; in the assay on A2780 cells (SRB) it was 20.5 nM.
On the same counts, the results for `CC(C)NC(=O)c1cc(S(=O)(=O)c2ccc(CNC(=O)c3cnc4nccn4c3)cc2)ccc1F` are 7.7 nM and 85.4 nM.
As to `COc1ccc(S(=O)(=O)c2ccc(CNC(=O)c3cnc4[nH]ncc4c3)cc2)c(Cl)c1` [N-({4-[(2-chloro-4-methoxybenzene)sulfonyl]phenyl}methyl)-1H-pyrazolo[3,4-b]pyridine-5-carboxamide], the 50% inhibitory concentration (IC50) came to 51.6 nM on NAMPT (NAMPT enzymatic reaction) and 87.7 nM in the assay with A2780 cells (SRB).
The matching figures for `Cc1cc(C)c(S(=O)(=O)c2ccc(CNC(=O)c3cc4ccncc4o3)cc2)cc1C`: 9.1 nM and 14.1 nM.
On the same counts, the results for `Cc1cc(C)cc(S(=O)(=O)c2ccc(CNC(=O)c3cnc4nccn4c3)cc2)c1` are 1.7 nM and 2 nM.
Take `Cc1nc(C)c(S(=O)(=O)c2ccc(CNC(=O)c3cnc4nccn4c3)cc2)s1` [N-{[4-(dimethyl-1,3-thiazole-5-sulfonyl)phenyl]methyl}imidazo[1,2-a]pyrimidine-6-carboxamide]: the half-inhibitory concentration (IC50) at NAMPT (NAMPT enzymatic assay) came to 3.7 nM; with A2780 cells (SRB), 49.5 nM.
The matching figures for `O=C(NCc1ccc(S(=O)(=O)c2cccc(N3CCCCC3)c2)cc1)c1cc2ccncc2o1` [N-[(4-{[3-(piperidin-1-yl)benzene]sulfonyl}phenyl)methyl]furo[2,3-c]pyridine-2-carboxamide]: 11.3 nM and 12.7 nM.
Take `CCOc1cc(S(=O)(=O)c2ccc(CNC(=O)c3cnc4[nH]ncc4c3)cc2)ccc1F` [N-({4-[(3-ethoxy-4-fluorobenzene)sulfonyl]phenyl}methyl)-1H-pyrazolo[3,4-b]pyridine-5-carboxamide]: the IC50 on NAMPT (NAMPT enzymatic reaction) was 26.1 nM; in the assay on A2780 cells (SRB) it was 12 nM.

The values are drawn from US12336981B2, “Compounds and compositions for the inhibition of NAMPT” (Valo Health, Inc., priority 2010, dated 2025).
